Test results reported in patent US20090018169A1, “Sulfonamide Derivatives for the Treatment of Bacterial Infections” (Laboratoires Serono SA, priority 2006, published 2009).

Target: recombinant MPTPB enzyme (Mycobacterium tuberculosis, UniProt I6WXK4)
Test: MPTPB enzymatic assay (DiFMUP substrate, fluorescence)
Type: biochemical
Settings: recombinant MPTPB 50 ng/ml, pH 6.6, 45 minutes at room temperature
Protocol: The compounds of the inventions have been tested in the following enzymatic assay:
Five μl of diluted compound or vehicle (100% DMSO) was distributed to a 96 well plate. 55 μl of DiFMUP 72.7 μM diluted in MPTPB buffer (20 mM Bis Tris HCl pH 6.6, 0.1% Brij 35, 1 mM DL-Dithiothreitol) was added, followed by 40 μl of recombinant MPTPB enzyme (50 ng/ml) diluted in MPTPB buffer in order to start the reaction. After 45 minutes incubation at room temperature fluorescence intensity was measured on a Perkin-Elmer Fusion spectrofluorimeter (excitation at 355 nm, emission at 460 nm, for 0.2 s).
Examples of inhibitory activities for compounds of the invention are set out in Table I below.

Sequence of recombinant MPTPB enzyme (I6WXK4 whole entry, looked up): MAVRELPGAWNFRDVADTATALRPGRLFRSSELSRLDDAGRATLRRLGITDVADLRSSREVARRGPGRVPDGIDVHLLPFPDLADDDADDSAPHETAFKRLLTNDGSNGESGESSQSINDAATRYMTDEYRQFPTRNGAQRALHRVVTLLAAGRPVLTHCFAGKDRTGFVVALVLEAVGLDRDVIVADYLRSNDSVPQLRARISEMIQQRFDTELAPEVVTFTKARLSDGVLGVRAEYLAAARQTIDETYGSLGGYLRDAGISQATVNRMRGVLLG

Row | SMILES | IC50 [nM]
1 | CC(CNS(=O)(=O)c1ccc(CN(Cc2cccc(Cl)c2)C(=O)C(=O)O)s1)c1ccc(Cl)cc1 (stereo not drawn) [Example 24, ((3-chlorobenzyl){[5-({[2-(4-chlorophenyl)propyl]amino}sulfonyl)-2-thienyl]methyl}amino)(oxo)acetic acid] | 770
2 | O=C(O)C(=O)N(Cc1cccc(Cl)c1)Cc1ccc(S(=O)(=O)NCCC(c2ccccc2)c2ccccc2)s1 [Example 14, {(3-chlorobenzyl) [(5-{[(3,3-diphenylpropyl)amino]sulfonyl}-2-thienyl)-methyl]amino}(oxo)acetic acid] | 790
3 | CCCCCCCCCCCCNS(=O)(=O)c1ccc(CN(Cc2ccccc2F)C(=O)C(=O)O)s1 [Example 6, [({5-[(dodecylamino)sulfonyl]-2-thienyl}methyl)(2-fluorobenzyl)amino]-(oxo)acetic acid] | 740
